Data on ten molecules can be found in article PMC6436534 (Chemistry (Weinheim an der Bergstrasse, Germany), 2019).

Molecules are shown by their SMILES. ≈ marks a conversion by molar mass, not a printed value. Read-outs that look alike come from different tables or passages of the source.

For series [1] the following is noted: clinically relevant warfarin analogue; cited from earlier work.
The test system of series [2] is mouse. To be noted: earlier in vivo mouse studies; cited from earlier work.
The conditions of series [3]: traditional octanol water partition coefficient determination.
Series [4] concerns breast cancer (MCF7) cell line. In words: Activity against breast cancer cell line. To be noted: for IC50: MCF7 breast cancer cell line. Format: cell-based.
Series [5] concerns melanoma (MM96L) cell line. In words: Activity against melanoma cell line. Format: cell-based.
The conditions of series [6]: for half-life: human liver microsomes, standard 60 min incubation; for metabolites observed by LC-MS: stored human liver microsomal incubates. (In general: Liver microsomes are a subcellular fraction often used to study metabolism.)
The subject of series [7] is adult male C57BL6/J mice. Nature of the series: Open field test. To be noted: OFT, compared to vehicle (water). It counts as in vivo.
A short description of series [8]: Chemical stability on storage. It counts as physicochemical. To be noted: stored at 8 °C for approximately two years, 1H NMR analysis.
Series [9] relates to vitamin K epoxide reductase (VKOR). Nature of the series: VKOR inhibition in FIXgla-PC/HEK293 reporter cells. Particulars: relative to (R)-enantiomer of cubane analogue.
Series [10] deals with scabies mites. Nature of the series: Scabies mite mortality. To be noted: at 8 h; same concentration as benzyl benzoate.

Take `CC(=O)CC(c1ccc([N+](=O)[O-])cc1)c1c(O)c2ccccc2oc1=O` (stereo not shown) [acenocoumarol]: in series [1], the half-life (in general, the time needed for the level to fall by half in the phase considered) is 10 h.
Regarding `O=C(CCCCCCC(=O)Nc1ccccc1)NO` [compound 11, suberanilohydroxamic acid, reference compound], the in vivo activity result in series [2] was “identical activity”. Besides, the log P (usually a log measure of how a compound divides between an organic and an aqueous phase) in [3] is recorded as 0.99.
Consider `O=C(CCCCCCC(=O)NC1=CC=CC=CC=C1)NO` [compound 23], for which the “fold less active than SAHA” value in [4] (MCF7 and MM96L cell lines, relative to SAHA) was “ca. 2 fold”. Moreover, the “fold more active than 16” value in series [4] (MCF7 and MM96L cell lines, relative to cubane derivative 16) is “ca. 2 fold”. In addition, the IC50 – broadly, the concentration at which inhibition is half-maximal – in [4] was 0.037 ± 0.003 µg/mL (≈ 0.127 µM); in [5], 0.073 ± 0.008 µg/mL (≈ 0.251 µM). The “log P” value in series [3] is 1.38.
On to `CC(=O)C[C@@H](C1=CC=CC=CC=C1)c1c(O)c2ccccc2oc1=O` [(S)-COT], for which, in series [6], the half-life was found to be 1.83 ± 0.633 h and the “metabolites observed by LC-MS” value is recorded as “substantial peaks exhibiting an M+16”.
On to `O=C(NCCN1CCOCC1)c1ccc(Cl)cc1` [compound 9, moclobemide], for which, in series [7], the “locomotor profile / total distance travelled” value was “decrease the total distance travelled by the same amount compared to the vehicle”.
Consider `CC1(O)CC(C2=CC=CC=CC=C2)c2c(c3ccccc3oc2=O)O1` (stereo not shown) [compound 8, COT-warfarin], for which the chemical stability entry in series [8] is reported as “no signs of decomposition”. The “log P” value in series [3] was determined as 2.82.
Turning to `CC(=O)CC(c1c(O)c2ccccc2oc1=O)C12C3C4C5C3C1C5C42` [(S)-cubane analogue], the “VKOR inhibition, fold lower activity than the (R)-enantiomer” value in [9] is given as “ca. 3 fold”.
In turn, `O=C(OCc1ccccc1)C1=CC=CC=CC=C1` [compound 26] returned a mite mortality in [10] of 75%. Further, the “log P” value in [3] turned out to be 3.34.
For `O=C(CCCCCCC(=O)NC12C3C4C5C3C1C5C42)NO` (stereo not shown) [compound 16], the IC50 in series [4] came to 0.053 ± 0.004 µg/mL (≈ 0.183 µM); in series [5] it was 0.137 ± 0.005 µg/mL (≈ 0.472 µM). Also, the in vivo activity entry in series [2] is listed as “identical activity”. The “log P” value in series [3] was determined as 1.52.
For `CC(=O)C[C@H](C1=CC=CC=CC=C1)c1c(O)c2ccccc2oc1=O` [(R)-COT], in [6], the half-life amounted to 2.17 ± 0.333 h and the “metabolites observed by LC-MS” value is on record as “significant quantities of an M+2 metabolite”.
